According to US20020035061A1, “COMPOSITIONS AND METHODS FOR TREATING INFECTIONS USING CATIONIC PEPTIDES ALONE OR IN COMBINATION WITH ANTIBIOTICS” (priority 1996, published 2002):
Read-outs that look alike come from different tables or passages of the source.

How the values were obtained:
[1] = tested on: mammalian red blood cells; details: 37° C., 1 hour
Protocol: Candidate cationic peptides may be further tested for their toxicity to normal mammalian cells. An exemplary assay is a red blood cell (RBC) (erythrocyte) hemolysis assay. Briefly, in this assay, red blood cells are isolated from whole blood, typically by centrifugation, and washed free of plasma components. A 5% (v/v) suspension of erythrocytes in isotonic saline is incubated with different concentrations of peptide analogue. […] After incubation for approximately 1 hour at 37° C., the cells are centrifuged, and the absorbance of the supernatant at 540 nm is determined. A relative measure of lysis is determined by comparison to absorbance after complete lysis of erythrocytes using NH4Cl or equivalent (establishing a 100% value). A peptide with <10% lysis at 100 μg/ml is suitable. Preferably, there is <5% lysis at 100 μg/ml. Such peptides that are not lytic, or are only moderately lytic, are desirable and suitable for further screening.
Cationic peptides are tested for toxicity towards eukaryotic cells by measuring the extent of lysis of mammalian red blood cells (RBC). Briefly, in this assay, red blood cells are separated from whole blood by centrifugation and washed free of plasma components. A 5% (v/v) washed red blood cell suspension is prepared in isotonic saline. An aliquot of peptide in formulation is then added and mixed in. After incubation at 37° C. for 1 hour with constant agitation, the solution is centrifuged and the supernatant measured for absorbance at 540 nm to detect released hemoglobin.
A combination of cationic peptide and antibiotic agent is tested for toxicity towards eukaryotic cells by measuring the extent of lysis of mammalian red blood cells. Briefly, red blood cells are separated from whole blood by centrifugation, washed free of plasma components, and resuspended to a 5% (v/v) suspension in isotonic saline. […] Following incubation with constant agitation at 37° C. for 1 hour, the solution is centrifuged, and the absorbance of the supernatant is measured at 540 nm, which detects released hemoglobin. […]

P. aeruginosa = format: cell-based; details: for Peptide MIC values: agarose dilution
A. calcoaceticus = format: cell-based
S. aureus = format: cell-based; details: for Peptide MIC values: agarose dilution
[2] = tested on: MSSA (Smith, ATCC # 19640); test: In vivo efficacy, MSSA infection; set-up: species or system S. aureus; details: mice, ip, formulation D, below 14.5 mg/kg
S. epidermidis = format: cell-based
[3] = tested on: E. coli strain ML-35 inner membrane; format: cell-based; details: cells pre-incubated with valinomycin
E. cloacae = format: cell-based
E. coli = format: cell-based; details: for Peptide MIC values: agarose dilution
E. faecium = format: cell-based
S. marcescens = format: cell-based
S. pneumoniae = test: Agarose dilution assay (MIC); format: cell-based; details: for Peptide MIC values: agarose dilution
S. maltophilia = format: cell-based
K. pneumoniae = format: cell-based
P. mirabilis = test: Agarose dilution assay (MIC); format: cell-based; details: P. mirabilis strain PM002
H. influenzae = test: Agarose dilution assay (MIC); format: cell-based; details: H. influenzae strain HIN002
E. faecalis = format: cell-based; details: E. faecalis strain EFS002
[4] = tested on: microorganisms with acquired resistance; test: microbe, parasite or virus in culture; format: cell-based
bacterial isolates = test: microbe, parasite or virus in culture; format: cell-based
S. pyogenes = test: Agarose dilution assay (MIC); format: cell-based; details: S. pyogenes strain SPY005
[5] = A. baumannii ABI001, Tobramycin section
[6] = A. calcoaceticus 3, Piperacillin section
[7] = P. aeruginosa 15, Piperacillin section
[8] = P. aeruginosa PA008, Tobramycin section
[9] = P. aeruginosa PA025, Tobramycin section
[10] = S. marcescens SB1, Piperacillin section
[11] = peptide + Piperacillin, A. calcoaceticus 3
[12] = peptide + Piperacillin, P. aeruginosa 15
[13] = peptide + Piperacillin, S. marcescens SB1
[14] = peptide + Tobramycin, A. baumannii ABI001
[15] = peptide + Tobramycin, P. aeruginosa PA008
[16] = peptide + Tobramycin, P. aeruginosa PA025

CC[C@H](C)[C@H](NC(=O)CNC(=O)[C@@H](NC(=O)[C@H](CCCCN)NC(=O)[C@H](CCCCN)NC(=O)[C@H](Cc1ccccc1)NC(=O)[C@H](CC(C)C)NC(=O)[C@H](CCCCN)NC(=O)[C@H](Cc1c[nH]c2ccccc12)NC(=O)[C@@H](N)CCCCN)[C@@H](C)CC)C(=O)NCC(=O)N[C@@H](C)C(=O)N[C@H](C(=O)N[C@@H](CC(C)C)C(=O)N[C@@H](CCCCN)C(=O)N[C@H](C(=O)N[C@@H](CC(C)C)C(=O)N[C@H](C(=O)N[C@H](C(=O)NCC(=O)N[C@@H](CC(C)C)C(=O)N1CCC[C@H]1C(=O)N[C@@H](C)C(=O)N[C@@H](CC(C)C)C(=O)N[C@H](C(=O)N[C@@H](CO)C(=O)O)[C@@H](C)CC)[C@@H](C)O)[C@@H](C)O)C(C)C)C(C)C [MBI 27]
% Lysis [1]: 2.7%

ILPWKWPWWPWRR [MBI 10CN]
MIC (P. aeruginosa; P. aeruginosa PA002): >128 µg/mL | Peptide MIC values (P. aeruginosa; P. aeruginosa ATCC 27853): >128 µg/mL | Peptide MIC values (P. aeruginosa; P. aeruginosa NCTC 10662): >128 µg/mL | MIC (A. calcoaceticus; A. calcoaceticus AC001): 64 µg/mL | MIC (S. aureus; S. aureus SA003): 2 µg/mL | Peptide MIC values (S. aureus; S. aureus MRSA9): 1 µg/mL | Peptide MIC values (S. aureus; S. aureus MRSA13): 4 µg/mL | Peptide MIC values (S. aureus; S. aureus MRSA17): 2 µg/mL | survival [2]: clear dose-dependent survival | MIC (S. epidermidis; S. epidermidis SE010): 4 µg/mL | ONPG hydrolysis diminished compared to no pre-incubation [3]: approximately 50% | MIC (E. cloacae; E. cloacae ECL007): >128 µg/mL | MIC (E. coli; E. coli ECO001): 32 µg/mL | MIC (E. coli; E. coli SBECO2): 16 µg/mL | Peptide MIC values (E. coli; E. coli ATCC 25922): 16 µg/mL | Peptide MIC values (E. coli; E. coli NCTC 10418): 8 µg/mL | MIC (E. faecium; E. faecium EFM003): 2 µg/mL | Peptide MIC values (E. faecium; agarose dilution): 4 µg/mL | MIC (S. marcescens; S. marcescens SMS004): >128 µg/mL | Peptide MIC values (S. marcescens; agarose dilution, S. marcescens SM82): >128 µg/mL | Peptide MIC values (S. pneumoniae; S. pneumoniae 406LE8): >128 µg/mL | Peptide MIC values (S. pneumoniae; S. pneumoniae 60120): 64 µg/mL | Peptide MIC values (S. pneumoniae; S. pneumoniae ATCC 49619): 32 µg/mL | MIC (S. maltophilia; S. maltophilia SMA002): 64 µg/mL | MIC (K. pneumoniae; K. pneumoniae KP002): 64 µg/mL

ILRRVJPWWPWRRR [MBI 11B9CN]
MIC (P. aeruginosa; P. aeruginosa strain PA004): 128 µg/mL | MIC (A. calcoaceticus; A. calcoaceticus strain AC002): 4 µg/mL | MIC (S. aureus; S. aureus strain SA010): 4 µg/mL | MIC (P. mirabilis): >128 µg/mL | MIC (S. epidermidis; S. epidermidis strain SE010): 2 µg/mL | MIC (H. influenzae): >128 µg/mL | MIC (E. cloacae; E. cloacae strain ECL007): >128 µg/mL | MIC (E. coli; E. coli strain ECO005): 8 µg/mL | MIC (E. faecium; E. faecium strain EFM002): 4 µg/mL | MIC (E. faecalis): 8 µg/mL | Peptide MIC + Tobramycin ([4]; A. baumannii ABI001): 8 µg/mL | Tobramycin MIC + Peptide ([4]; A. baumannii ABI001): 4 µg/mL | Peptide MIC Alone [4, 5]: 32 µg/mL | Peptide MIC + Piperacillin ([4]; A. calcoaceticus 3): 16 µg/mL | Piperacillin MIC + Peptide ([4]; A. calcoaceticus 3): 16 µg/mL | Peptide MIC Alone [4, 6]: 32 µg/mL | Peptide MIC + Tobramycin ([4]; E. coli EC0006): 8 µg/mL | Tobramycin MIC + Peptide ([4]; E. coli EC0006): 4 µg/mL | Peptide MIC Alone ([4]; E. coli EC0006, Tobramycin section): 32 µg/mL | Peptide MIC + Piperacillin ([4]; P. aeruginosa 12): 64 µg/mL | Piperacillin MIC + Peptide ([4]; P. aeruginosa 12): 64 µg/mL | Peptide MIC Alone ([4]; P. aeruginosa 12, Piperacillin section): 128 µg/mL | Peptide MIC + Piperacillin ([4]; P. aeruginosa 15): 64 µg/mL | Piperacillin MIC + Peptide ([4]; P. aeruginosa 15): 64 µg/mL | Peptide MIC Alone [4, 7]: >128 µg/mL | Peptide MIC + Tobramycin ([4]; P. aeruginosa PA008): 64 µg/mL | Tobramycin MIC + Peptide ([4]; P. aeruginosa PA008): 0.125 µg/mL | Peptide MIC Alone [4, 8]: 128 µg/mL | Peptide MIC + Tobramycin ([4]; P. aeruginosa PA025): 64 µg/mL | Tobramycin MIC + Peptide ([4]; P. aeruginosa PA025): 2 µg/mL | Peptide MIC Alone [4, 9]: 128 µg/mL | Peptide MIC + Piperacillin ([4]; S. maltophilia 2): 16 µg/mL | Piperacillin MIC + Peptide ([4]; S. maltophilia 2): 16 µg/mL | Peptide MIC Alone ([4]; S. maltophilia 2, Piperacillin section): 32 µg/mL | Peptide MIC + Tobramycin ([4]; S. maltophilia SMA027): 32 µg/mL | Tobramycin MIC + Peptide ([4]; S. maltophilia SMA027): 4 µg/mL | Peptide MIC Alone ([4]; S. maltophilia SMA027, Tobramycin section): >128 µg/mL | Peptide MIC + Tobramycin ([4]; S. maltophilia SMA031): 32 µg/mL | Tobramycin MIC + Peptide ([4]; S. maltophilia SMA031): 4 µg/mL | Peptide MIC Alone ([4]; S. maltophilia SMA031, Tobramycin section): >128 µg/mL | Peptide MIC + Piperacillin ([4]; S. marcescens SB1): 2 µg/mL | Piperacillin MIC + Peptide ([4]; S. marcescens SB1): 16 µg/mL | Peptide MIC Alone [4, 10]: >128 µg/mL | FIC [4, 11]: 0.75 | FIC ([4]; peptide + Piperacillin, P. aeruginosa 12): 0.75 | FIC [4, 12]: 0.50 | FIC ([4]; peptide + Piperacillin, S. maltophilia 2): 0.75 | FIC [4, 13]: 0.26 | FIC [4, 14]: 0.50 | FIC ([4]; peptide + Tobramycin, E. coli EC0006): 0.75 | FIC [4, 15]: 0.50 | FIC [4, 16]: 0.56 | FIC ([4]; peptide + Tobramycin, S. maltophilia SMA027): 0.63 | FIC ([4]; peptide + Tobramycin, S. maltophilia SMA031): 0.19 | MIC (S. marcescens; S. marcescens strain SMS003): >128 µg/mL | MIC (S. pneumoniae; S. pneumoniae strain SBSPN2): >128 µg/mL | MIC (S. pneumoniae; S. pneumoniae strain SPN044): >128 µg/mL | MIC (S. maltophilia; S. maltophilia strain SMA002): 32 µg/mL | Peptide MIC + Tobramycin (bacterial isolates; A. baumannii ABI001): 8 µg/mL | Tobramycin MIC + Peptide (bacterial isolates; A. baumannii ABI001): 4 µg/mL | Peptide MIC Alone (bacterial isolates; [5]): 32 µg/mL | Peptide MIC + Piperacillin (bacterial isolates; A. calcoaceticus 3): 2 µg/mL | Piperacillin MIC + Peptide (bacterial isolates; A. calcoaceticus 3): 32 µg/mL | Peptide MIC Alone (bacterial isolates; [6]): 32 µg/mL | Peptide MIC + Tobramycin (bacterial isolates; B. cepacia BC002): 32 µg/mL | Tobramycin MIC + Peptide (bacterial isolates; B. cepacia BC002): 64 µg/mL | Peptide MIC Alone (bacterial isolates; B. cepacia BC002, Tobramycin section): >128 µg/mL | Peptide MIC + Piperacillin (bacterial isolates; H. influenzae 3): 0.125 µg/mL | Piperacillin MIC + Peptide (bacterial isolates; H. influenzae 3): 0.25 µg/mL | Peptide MIC Alone (bacterial isolates; H. influenzae 3, Piperacillin section): >128 µg/mL | Peptide MIC + Piperacillin (bacterial isolates; H. influenzae SB1): 0.125 µg/mL | Piperacillin MIC + Peptide (bacterial isolates; H. influenzae SB1): 0.25 µg/mL | Peptide MIC Alone (bacterial isolates; H. influenzae SB1, Piperacillin section): >128 µg/mL | Peptide MIC + Piperacillin (bacterial isolates; P. aeruginosa 15): 64 µg/mL | Piperacillin MIC + Peptide (bacterial isolates; P. aeruginosa 15): 64 µg/mL | Peptide MIC Alone (bacterial isolates; [7]): >128 µg/mL | Peptide MIC + Piperacillin (bacterial isolates; P. aeruginosa 23): 0.5 µg/mL | Piperacillin MIC + Peptide (bacterial isolates; P. aeruginosa 23): 16 µg/mL | Peptide MIC Alone (bacterial isolates; P. aeruginosa 23, Piperacillin section): 64 µg/mL | Peptide MIC + Tobramycin (bacterial isolates; P. aeruginosa PA008): 64 µg/mL | Tobramycin MIC + Peptide (bacterial isolates; P. aeruginosa PA008): 0.125 µg/mL | Peptide MIC Alone (bacterial isolates; [8]): 128 µg/mL | Peptide MIC + Tobramycin (bacterial isolates; P. aeruginosa PA025): 64 µg/mL | Tobramycin MIC + Peptide (bacterial isolates; P. aeruginosa PA025): 2 µg/mL | Peptide MIC Alone (bacterial isolates; [9]): 128 µg/mL | Peptide MIC + Piperacillin (bacterial isolates; S. aureus 19 MRSA): 1 µg/mL | Piperacillin MIC + Peptide (bacterial isolates; S. aureus 19 MRSA): 16 µg/mL | Peptide MIC Alone (bacterial isolates; S. aureus 19 MRSA, Piperacillin section): 4 µg/mL | Peptide MIC + Piperacillin (bacterial isolates; S. aureus SB2MRSA): 1 µg/mL | Piperacillin MIC + Peptide (bacterial isolates; S. aureus SB2MRSA): 8 µg/mL | Peptide MIC Alone (bacterial isolates; S. aureus SB2MRSA, Piperacillin section): 2 µg/mL | Peptide MIC + Piperacillin (bacterial isolates; S. maltophilia 5): 64 µg/mL | Piperacillin MIC + Peptide (bacterial isolates; S. maltophilia 5): 64 µg/mL | Peptide MIC Alone (bacterial isolates; S. maltophilia 5, Piperacillin section): >128 µg/mL | Peptide MIC + Piperacillin (bacterial isolates; S. maltophilia 13): 32 µg/mL | Piperacillin MIC + Peptide (bacterial isolates; S. maltophilia 13): 64 µg/mL | Peptide MIC Alone (bacterial isolates; S. maltophilia 13, Piperacillin section): >128 µg/mL | Peptide MIC + Tobramycin (bacterial isolates; S. maltophilia SMA029): 16 µg/mL | Tobramycin MIC + Peptide (bacterial isolates; S. maltophilia SMA029): 4 µg/mL | Peptide MIC Alone (bacterial isolates; S. maltophilia SMA029, Tobramycin section): >128 µg/mL | Peptide MIC + Piperacillin (bacterial isolates; S. marcescens SB1): 2 µg/mL | Piperacillin MIC + Peptide (bacterial isolates; S. marcescens SB1): 16 µg/mL | Peptide MIC Alone (bacterial isolates; [10]): >128 µg/mL | FIC (bacterial isolates; [11]): 0.56 | FIC (bacterial isolates; peptide + Piperacillin, H. influenzae 3): 0.50 | FIC (bacterial isolates; peptide + Piperacillin, H. influenzae SB1): 0.50 | FIC (bacterial isolates; [12]): 0.50 | FIC (bacterial isolates; peptide + Piperacillin, P. aeruginosa 23): 0.13 | FIC (bacterial isolates; peptide + Piperacillin, S. aureus 19 MRSA): 0.38 | FIC (bacterial isolates; peptide + Piperacillin, S. aureus SB2MRSA): 0.56 | FIC (bacterial isolates; peptide + Piperacillin, S. maltophilia 5): 0.50 | FIC (bacterial isolates; peptide + Piperacillin, S. maltophilia 13): 0.38 | FIC (bacterial isolates; [13]): 0.26 | FIC (bacterial isolates; [14]): 0.50 | FIC (bacterial isolates; peptide + Tobramycin, B. cepacia BC002): 0.38 | FIC (bacterial isolates; [15]): 0.50 | FIC (bacterial isolates; [16]): 0.56 | FIC (bacterial isolates; peptide + Tobramycin, S. maltophilia SMA029): 0.13 | MIC (S. pyogenes): 16 µg/mL | MIC (K. pneumoniae; K. pneumoniae strain KP001): 32 µg/mL
